According to US9051598B2, “Specific detection of D-glucose by a tetraphenylethene-base fluorescent sensor” (THE HONG KONG UNIVERSITY OF SCIENCE AND TECHNOLOGY, priority 2011, dated 2015):
Where two headings read alike, the source gives them in different places. Blank lines part the entries; values can stand above or below the molecule they belong to.

Experiments:
[1] = cited from earlier work
[2] = cited from earlier work; remark: listed apart in the source
[3] = Detection of Glu in artificial urine by TPEDB; conditions: TPEDB 50 μM, carbonate buffer with artificial urine
Description: To explore the potential of TPEDB for real-world applications, the possibility of using TPEDB for detection of Glu in urine was tested. […] The profile of the I/I0 versus [Glu] plot for the urine Glu, however, was different from that for the “pure” Glu (in the carbonate buffer without urine) in the high-[Glu] region. Although the exact reason for this is unclear at the present time, it may be caused by the interactions of urea, α-hydroxycarboxylic acids, and salts in the urine with the boronate units of TPEDB.
An artificial urine was prepared according to the recipe reported by Keevil et al. and Whitesides et al (C. W. Keevil, et al, Lett. Appl. Microbiol. 1997. 24, 203; G. M. Whitesides, et al, Proc. Natl. Acad. Sci. U.S.A. 2008, 105, 19606). 1.1 mM Lactic acid, 2.0 mM citric acid, 25 mM sodium bicarbonate, 170 mM urea, 2.5 mM calcium chloride, 90 mM sodium chloride, 2.0 mM magnesium sulfate, 7.0 mM potassium dihydrogen phosphate, 7.0 mM dipotassium hydrogen phosphate, 10 mM sodium sulfate, and 25 mM ammonium chloride were mixed in deionized water. The pH value of the solution was adjusted to 6.0 by the addition of 1.0 M hydrochloric acid. […]
An aliquot (1 mL) of the artificial urine solution with a desired concentration of Glu was added to 2 mL solution of TPEDB (100 μM) in the carbonate buffer containing 4 vol % DMSO. […] FL spectrum of the mixture was measured after stirring for 30 min.

[4] = FL intensity of TPEDB in Britton-Robinson buffers at different pH; type: physicochemical
Description: (§1) The light emission of TPEDB started to decrease in intensity when the pH of the buffer was raised to >8.61 and became very weak at pH≧9.74. Since the pKa of PBA is ca. 9, TPEDB was ionized by the alkaline medium and became soluble in the buffers with high pH. The solutions of TPEDB were virtually nonfluorescent, while its aggregates were highly emissive, proving that TPEDB, like its parent form TPE, is AIE-active.
(§2) Into a 100 mL volumetric flask were added 4.0 mg NaOH and 80 mL of deionized water. After adding 3 mL of DMSO into the carbonate buffer, 1 mL of the stock solution of TPEDB in DMSO (10 mM) was added under stirring. The volume of the solution was increased to 100 mL by adding an appropriate amount of deionized water. The resultant solution of TPEDB (0.1 mM) in the NaOH solution (0.001M) containing 4 vol % DMSO was stirred for 15 min before use.
Into a 100 mL volumetric flask were added 4.611 H3PO4, 2.402 g CH3COOH, and 2.473 g B(OH)3, and the volume of the solution was increased to 100 mL by adding appropriate amount of deionized water. The resultant solution of the acid mixture (0.4 M) was stirred for 15 min before use. Into a 100 mL volumetric flask was added 1.600 g NaOH, and the volume of the solution was increased to 100 mL by adding appropriate amount of deionized water. The resultant solution of base (0.4 M) was stirred for 15 min before use. An aliquot (0.4 mL) of the solution of acid mixture (0.4 M) and appropriate amount of the solution of NaOH (0.4 M) from 0 mL to 1.6 mL were added into a 10 mL volumetric flask. The volume of the solution was increased to 2.0 mL by adding an appropriate amount of deionized water. The resultant standard Britton-Robinson buffer (0.08 M) with various pH was left to stand for a few minutes before use.
An aliquot (2.0 mL) of the stock solution of TPEDB (0.1 mM) in the NaOH solution (0.001M) containing 4 vol % DMSO and 2.0 mL of the standard Britton-Robinson buffer (0.08 M) with various pH were added into a 10 mL volumetric flask. After shaking for a few seconds, solutions of TPEDB (50 μM) with various pH in the Britton-Robinson buffer containing 2 vol % DMSO were obtained. The solutions were allowed to stand for 30 min, and their FL spectra were measured before the pH values were measured using pH-meter.

[5] = FL response of probe to D-fructose in carbonate buffer
[6] = FL response of TPE boronic acid probe to D-glucose in carbonate buffer
Description: The present subject matter in one embodiment relates to a selective detection of D-glucose (D-Glu) by TPEDB probe in a sample with its fluorescence enhancement. The concentration or level of D-Glu detectable in a sample is not particularly limited, but is preferably about 0.2 mM or more. […] When 0.2 mM Glu was added, however, the FL spectrum of TPEDB was intensified. The FL intensity increased with an increase in the amount of Glu. At [Glu]=5 mM, the solution of TPEDB became very emissive, with an intensity ca. 5.4-fold higher than that in the absence of Glu.
as §2, with “1.120 g of K2CO3, 0.190 g of KHCO3” for “4.0 mg NaOH”, “carbonate buffer (pH 10.5)” for “NaOH solution (0.001M) containing 4 vol % DMSO”
Into a 25 mL volumetric flask was added 90 mg of a saccharide (Glu, Fru, Gal or Man) and 25 mL of deionized water. An aliquot of the resultant stock solution (20 mM) was diluted in another volumetric flask to obtain a sample solution with a desired concentration (2.0 mM, 0.20 mM, 20 μM or 2.0 μM).
An aliquot (2.0 mL) of the stock solution of TPEDB (0.1 mM) in the carbonate buffer containing 4 vol % DMSO and 2.0 mL of the stock solution of Glu (20 mM) were added into a 10 mL volumetric flask. After shaking for a few seconds, a solution of TPEDB (50 μM) with 10 mM of Glu in the carbonate buffer containing 2 vol % DMSO was obtained. The solution was allowed to stand for 30 min before its FL measurement.
To prepare a solution of TPEDB (50 μM) with 8 mM of Glu in the carbonate buffer containing 2 vol % DMSO, 1.6 mL of the stock solution of Glu (20 mM) and 0.4 mL of deionized water were added to 2.0 mL of a stock solution of TPEDB (0.1 mM) in the carbonate buffer containing 4 vol % DMSO.

[7] = Miscibility / solubility of TPEDB in aqueous media; type: physicochemical
From the text: as §1

[8] = FL response of TPEDB to Glu in the presence of a saccharide interferent
Description: In the presence of Fru, the FL spectrum of TPEDB was gradually intensified by the addition of Glu, but the rate of increase in the intensity was lower because of the competition between Glu and Fru to bind with TPEDB. Similarly, Gal and Man interfered with the FL response of TPEDB to Glu, although the effects were smaller.
Solutions of Glu (40 mM-4.0 μM), Fru (0.4 mM), Gal (0.4 mM) and Man (0.4 mM) in deionized water were prepared. An aliquot (2.0 mL) of the solution of TPEDB (0.1 mM) in the carbonate buffer containing 4 vol % DMSO was added into a 10 mL volumetric flask, followed by the addition of 1.0 mL of a solution of Fru (0.4 mM) and 1.0 mL of a solution of Glu (40 mM). After shaking for a few seconds, a solution of TPEDB (50 μM) with 10 mM of Glu and 0.1 mM of Fru in the carbonate buffer containing 2% DMSO was obtained. The solution was allowed to stand for 30 min before its FL measurement. The solution of TPEDB and Glu containing another saccharide (Gal or Man) was prepared by similar procedures.

[9] = FL response of probe to D-galactose in carbonate buffer; conditions: TPEMB 10 μM, 10 vol % DMSO, any amount
[10] = FL response of probe to D-mannose in carbonate buffer; conditions: TPEMB 10 μM, 10 vol % DMSO, any amount
[11] = Britton-Robinson buffer, 2 vol % DMSO

Structure (SMILES): OB(O)c1ccccc1 [PBA, phenylboronic acid]
pKa [1]: ca. 9 | Ka,sugar/Ka,Glu ([2]; Fru): 34.8 | Ka,sugar/Ka,Glu ([2]; Gal): 3.3 | Ka,sugar/Ka,Glu ([2]; Man): 2.8

pH below which the luminogen is highly emissive [4]: < 9.0 | pH above which light emission started to decrease in intensity [4, 11]: > 8.61 | pH at which light emission became very weak [4, 11]: ≥ 9.74 | Emission of aggregates suspended in acidic buffer ([4]; pH 4.34): strong blue light | Solubility in alkaline aqueous media ([7]; alkaline aqueous media containing small amount of DMSO): readily soluble | Miscibility with water ([7]; water): immiscible with water
Structure (SMILES): OB(O)c1ccc(C(=C(c2ccccc2)c2ccc(B(O)O)cc2)c2ccccc2)cc1 [TPEDB, (1,2-diphenylethene-1,2-diyl)bis(1,4-phenylene)-1,1′-diboronic acid]
Effect of Glu in artificial urine on FL spectrum [3]: augmented its FL spectrum | Change of emission spectrum on addition of Fru ([5]; 10 mM Fru, TPEDB in carbonate buffer): only slightly intensified | Glu concentration at which the FL spectrum of TPEDB was intensified (below it almost no change) ([6]; TPEDB 50 μM, carbonate buffer pH 10.5): 0.2 mM | [Glu] at which FL intensity reaches its maximum ([6]; TPEDB 50 μM, carbonate buffer pH 10.5, intensity decreases above): 5 mM | Interference of the isomeric saccharides to the FL response to Glu ([8]; 0.1 mM Fru, Gal or Man interferent, TPEDB 50 μM, carbonate buffer): almost no interference | Affinity order of saccharide to TPEDB ([8]; suggested from interference data): Fru>Gal≈Man>Glu

Structure (SMILES): OB(O)c1ccc(C(=C(c2ccccc2)c2ccccc2)c2ccccc2)cc1 [TPEMB, 4-(1,2,2-triphenylvinyl)phenylboronic acid]
Emission on addition of Gal [9]: remained nonemissive | Emission on addition of Fru ([5]; TPEMB 10 μM, carbonate buffer, 10 vol % DMSO, any amount): remained nonemissive | Change in FL spectrum on addition of Glu ([6]; TPEMB 10 μM, carbonate buffer, 10 vol % DMSO, wide [Glu] range): little change | Emission on addition of Man [10]: remained nonemissive
